Test results taken from patent publication US20050148838A1, “Pharmaceutical discovery and development” (priority 2002, published 2005).

Experiment: Coulometric EC-MS (voltammetric mass spectrometry), Phase I type EC oxidation
Format: physicochemical
Conditions: per product ion
Description: Referring to FIG. 1A, a Model 1100 LC/MSD single quadrupole mass spectrometer 10 (Agilent Technologies, Palo Alto, Calif., USA) was used in combination with a Coulochem® III ECD 12 and Model 5021 coulometric cell 14 (ESA Inc., Chelmsford, Mass., USA).
Compounds are characterized via automated sequences, in which EC potential is changed from, e.g., 0-1200 mV(vs. Pd) in increments of, e.g., 200 mV. EC current and MS ion abundance at specific mass-to-charge ratios (m/z) is monitored. In accordance with the present invention, EC (e.g., coulometric, or amperometric) and reaction product profiles for various drug candidates can be obtained reproducibly. Peak area for parent compounds is inversely proportional to EC response with concomitant formation of reaction products.

E½ (½ wave potential for product formation) [mV vs. Pd]	Structure (SMILES)
1100	N[C@@H](CCS)C(=O)O [Homocysteine]
1000	CCCCN1C[C@H](O)[C@@H](O)[C@H](O)[C@H]1CO [N-butyldeoxynojirimycin]
650	CN(C)CCCN1c2ccccc2CCc2ccccc21 [Imipramine]
1100	CSCC[C@H](N)C(=O)O [Methionine]
1000	CC(C)NCC(O)COc1cccc2ccccc12 (stereo not shown) [Propranolol]

Further lines, the molecule ahead of its results:

Structure (SMILES)	E½ (½ wave potential for product formation) [mV vs. Pd]
C[C@]12CC[C@@H]3c4ccc(O)c(O)c4CC[C@H]3[C@@H]1CC[C@@H]2O [4-Hydroxyestradiol]	250
C[C@]12CC[C@@H]3c4cc(O)c(O)cc4CC[C@H]3[C@@H]1CC[C@@H]2O [2-Hydroxyestradiol]	250
COc1cc2c(cc1O)CC[C@@H]1[C@@H]2CC[C@]2(C)[C@@H](O)CC[C@@H]12 [2-Methoxyestradiol]	450
COc1c(O)ccc2c1CC[C@@H]1[C@@H]2CC[C@]2(C)[C@@H](O)CC[C@@H]12 [4-Methoxyestradiol]	450

Experiment: EC-MS oxidation with co-injected glutathione (Phase II type conjugation of EC-generated electrophiles)
Conditions: not given

glutathionyl addition products formed on EC oxidation	Structure (SMILES)
mono-glutathionyl addition product	Cc1cc(C(C)(C)C)c(O)c(C(C)(C)C)c1 [BHT]
